# Reference: article PMC4770772 (Oncotarget, 2015)
# Substitutions are numbered along the chain they refer to. Where two headings read alike, the source gives them in different places.
# Experiments:
# ABCG2 [1] = molecular target: T1, ABCG2 (Homo sapiens, UniProt Q9UNQ0, R482G); test: [3H]-mitoxantrone accumulation in HEK293/R482G cells at […]; type: cell-based
# T1 construct: full-length ABCG2 in HEK293 cells
# T1 sequence (Q9UNQ0 1-655 R482G): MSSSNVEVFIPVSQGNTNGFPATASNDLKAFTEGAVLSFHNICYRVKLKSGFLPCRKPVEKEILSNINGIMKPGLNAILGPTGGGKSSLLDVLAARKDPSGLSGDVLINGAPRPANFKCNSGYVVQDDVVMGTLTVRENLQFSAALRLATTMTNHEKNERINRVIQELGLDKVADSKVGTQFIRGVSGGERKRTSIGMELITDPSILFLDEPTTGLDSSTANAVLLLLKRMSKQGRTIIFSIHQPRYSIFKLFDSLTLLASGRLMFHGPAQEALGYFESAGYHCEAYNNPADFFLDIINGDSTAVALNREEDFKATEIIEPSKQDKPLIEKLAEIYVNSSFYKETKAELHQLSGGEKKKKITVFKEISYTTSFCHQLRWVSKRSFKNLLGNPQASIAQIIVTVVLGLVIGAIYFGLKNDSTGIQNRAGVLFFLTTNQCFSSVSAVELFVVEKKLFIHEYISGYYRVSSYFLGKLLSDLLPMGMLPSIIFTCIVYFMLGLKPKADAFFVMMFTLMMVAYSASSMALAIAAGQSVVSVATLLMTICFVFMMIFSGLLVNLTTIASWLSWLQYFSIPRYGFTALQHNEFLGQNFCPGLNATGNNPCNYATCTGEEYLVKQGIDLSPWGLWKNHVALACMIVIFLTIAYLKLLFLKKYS
# ABCG2 [2] = molecular target: T2, ABCG2 (Homo sapiens, UniProt Q9UNQ0, R482T); test: [3H]-mitoxantrone accumulation in HEK293/R482T cells at […]; type: cell-based
# T2 construct: full-length ABCG2 in HEK293 cells
# T2 sequence (Q9UNQ0 1-655 R482T): T1 sequence (Q9UNQ0 1-655 R482G) with G482T
# ABCG2 [3] = molecular target: T3, ABCG2 (Homo sapiens, UniProt Q9UNQ0); test: vanadate-sensitive ATPase stimulation in membrane vesicles; also [3H]-mitoxantrone accumulation/efflux inhibition in HEK293/R482 cells; type: biochemical
# T3 construct: membrane vesicles of High Five insect cells overexpressing ABCG2
# T3 sequence (Q9UNQ0 1-655): T1 sequence (Q9UNQ0 1-655 R482G) with G482R
# ABCG2 [4] = molecular target: T3, ABCG2; type: biochemical; conditions: membrane vesicles
# ABCG2 [5] = molecular target: T3, ABCG2; test: vanadate-sensitive ATPase stimulation in membrane vesicles; [3H]-MX efflux from ABCG2-transfected cells; type: biochemical
structure (smiles),measurement,setting,value
COc1cc(NC(=O)c2ccc(-c3ccc(Cl)cc3)o2)cc(OC)c1 [A-803467],[3H]-mitoxantrone accumulation in HEK293/R482G cells at 7.5 μM,ABCG2 [1],"significantly increased intracellular accumulation of [^3H]-MX in ABCG2-expressing cells HEK293/R482, HEK293/R482G and HEK293/R482T cells"
same,[3H]-mitoxantrone accumulation in HEK293/R482T cells at 7.5 μM,ABCG2 [2],"significantly increased intracellular accumulation of [^3H]-MX in ABCG2-expressing cells HEK293/R482, HEK293/R482G and HEK293/R482T cells"
same,EC50,ABCG2 [3],0.718 µM
CC[C@@]1(O)C(=O)OCc2c1cc1n(c2=O)Cc2cc3c(CN(C)C)c(O)ccc3nc2-1 [topotecan],EC50,ABCG2 [4],2.6 µM
O=C1c2c(O)ccc(O)c2C(=O)c2c(NCCNCCO)ccc(NCCNCCO)c21 [mitoxantrone],EC50,ABCG2 [5],2.2 µM
